In general, IC50 refers to the concentration at which inhibition is half-maximal. Lower therefore signals greater potency in that assay.

For data set [1], the system named is seven canine cancer cell lines. Particulars: all seven cell lines. On the procedure:
Sensitivity to radiation or chemical reagents was assessed through colony formation assays. After trypsinized single cells were plated to form 20–200 colonies per dish and then treated with SQAP for 3 h in normoxia or hypoxia, the cells were irradiated. For drug sensitivity study, trypsinized cells were plated and then treated with various dosage of testing agents. After seven days of incubation, colonies were fixed, stained and scored. Regression curves were drawn from survival fraction, and D10 values (doses to achieve 10% cell survival) were calculated by Prism 8 (GraphPad software, San Diego, CA, USA) from at least three independent experiments. Oxygen enhancement ratio (OER) and sensitization enhancement ratio (SER) values were calculated from D10 values. OER values were calculated from the D10 value in hypoxia divided by the D10 value in normoxic condition. SER values were calculated from the D10 value without SQAP divided by the D10 value with SQAP.

In data set [2] the test system is seven canine cancer cell lines (Abrams, D17, Moresco, CML-6M, Jones, CML-10C2, STSA-1). The data set can be described thus: Colony formation assay, gamma-ray radiosensitization in normoxia or hypoxia. The data set is classed as cell-based. To be noted: 30 µM SQAP. On the procedure: Irradiation was conducted by JL Shepard Mark I ^137Cs irradiator (nominal 6000 Ci) with dose rate of approximately 2.5 Gy per minute at room temperature. For hypoxia irradiation, cell cultures were placed in Aneropak Kenki system (Mitsubishi Gas Chemical, Tokyo, Japan) with oxygen meter to confirm pO2 below 0.1%. Cells were kept in hypoxia for 3 h before irradiation.

For the next data set, the target named is T1, Topo I (Homo sapiens, UniProt P11387).
T1 sequence (P11387 1-765): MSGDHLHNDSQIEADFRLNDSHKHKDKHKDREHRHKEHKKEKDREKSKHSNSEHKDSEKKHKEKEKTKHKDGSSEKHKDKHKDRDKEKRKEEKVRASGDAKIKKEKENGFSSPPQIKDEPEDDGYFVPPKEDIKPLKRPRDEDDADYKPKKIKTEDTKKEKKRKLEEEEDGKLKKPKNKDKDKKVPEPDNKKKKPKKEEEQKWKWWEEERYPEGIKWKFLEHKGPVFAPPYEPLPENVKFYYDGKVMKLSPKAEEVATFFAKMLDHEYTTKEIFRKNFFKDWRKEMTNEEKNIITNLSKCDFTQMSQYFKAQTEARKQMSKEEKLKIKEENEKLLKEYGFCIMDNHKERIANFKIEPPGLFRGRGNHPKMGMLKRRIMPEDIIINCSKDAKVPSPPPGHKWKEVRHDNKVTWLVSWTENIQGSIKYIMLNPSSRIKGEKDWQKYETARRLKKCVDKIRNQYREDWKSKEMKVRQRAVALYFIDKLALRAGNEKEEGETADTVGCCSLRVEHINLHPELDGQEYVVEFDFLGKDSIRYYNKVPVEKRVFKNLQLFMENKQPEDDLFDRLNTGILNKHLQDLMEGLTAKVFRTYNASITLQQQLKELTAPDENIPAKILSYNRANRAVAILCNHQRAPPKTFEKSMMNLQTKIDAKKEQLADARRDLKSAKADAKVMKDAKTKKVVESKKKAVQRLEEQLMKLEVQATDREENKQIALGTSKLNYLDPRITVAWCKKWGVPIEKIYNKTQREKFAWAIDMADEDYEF
The data set can be described thus: Topoisomerase I assay. The data set is classed as biochemical. To be noted: supercoiled pHOT1 DNA, 37 °C, 30 min. On the procedure: (§1) For topoisomerase (Topo) I assay, a mixture of 125 ng of supercoiled pHOT1 DNA, 1U of Topo I enzyme, and various concentrations of SQAP in 1 mM Tris-HCl (pH7.9), 0.1 mM EDTA, 0.015 M NaCl, 0.01% BSA, 0.01 mM Spermidine and 0.5% glycerol was incubated at 37 °C for 30 min. For Topo II alpha assay, a mixture of 10 µL containing of 50 ng of […] DNA in 0.05 M Tris-HCl (pH8), 1U of Topo II alpha, various concentrations of SQAP in 0.15 M NaCl, 10 mM MgCl2, 0.5mM DTT, 30 µg/mL of BSA, 2 mM ATP was incubated at 37 °C for 30 min. After the reaction was terminated, electrophoresis was conducted at 50 V for 3 h, followed by ethidium bromide staining. DNA images were obtained by a Bio-Rad imager (Bio-Rad, Hercules, CA, USA) and quantified with Image Lab software (Bio-Rad).

The target of the next data set is Topo II alpha (Homo sapiens, UniProt P11388). The experiment in a line: Topoisomerase II alpha assay. The data set is classed as biochemical. Particulars: kinetochore DNA, 37 °C, 30 min. How it is done: as §1
Data set [3] deals with CHO wild type, EM9, xrs5 and 51D1 cells. The experiment in a line: Sister chromatid exchange assay. The data set is classed as cell-based, Chinese hamster. On the procedure: CHO cells were synchronized into G1 phase using mitotic shake-off method. Cells in the G1 phase were irradiated, and 10 µM of BrdU was added. After 20 h, colcemid was added for 6 h to arrest cells in metaphase. Collected cells were treated with hypotonic KCl solution and fixed using methanol: acetic acid (3:1) as the standard method. Metaphase chromosome spread was prepared on glass slides and treated with 5 µg/mL of Hoechst 33258 solution for 15 min and exposed to UVB for 15 min and treated with 2X SSC solution at 80 °C for 15 min. Cells were stained with 5% Giemsa stain solution. At least 50 metaphase spreads were analyzed for SCE scoring per experiment.

The next data set relates to CHO cells. The experiment in a line: G2 premature chromosome condensation (PCC) assay. The data set is classed as cell-based, Chinese hamster. How it is done: Following treatment with SQAP for 1 h, exponentially growing CHO cells were irradiated and treated with 50 nM of Calyculin A (Sigma-Aldrich) for 30 min as previously described. Cells were then fixed and stained as chromosome aberration analysis. Under a Zeiss Axioskop microscope, chromatid gaps, breaks, iso-breaks and exchanges were all scored as G2-PCC chromatid breaks. At least 50 PCC-spreads were scored in three independent experiments.

The test system of data set [4] is histone deacetylase 1 (HDAC1). More on the design: method as in PMID 33577659. To be noted: cited from earlier work.
A further data set deals with HDAC1 expression. Further details: method as in PMID 33577659. To be noted: hypoxic conditions ref 11; cited from earlier work.
Data set [5] deals with poly (ADP-ribose) glycohydrolase (PARG). Further details: method as in PMID 37973295. Particulars: cited from earlier work.
For data set [6], the system named is dogs and cats with cancer. Particulars: dogs and cats with cancer receiving radiation therapy ref 8, 9; cited from earlier work.
The conditions of data set [7]: in vivo ref 34; cited from earlier work.

The structures appear in SMILES notation. Like-named read-outs stand apart in the source and are kept apart here.

Sequence of Topo II alpha (P11388 whole entry): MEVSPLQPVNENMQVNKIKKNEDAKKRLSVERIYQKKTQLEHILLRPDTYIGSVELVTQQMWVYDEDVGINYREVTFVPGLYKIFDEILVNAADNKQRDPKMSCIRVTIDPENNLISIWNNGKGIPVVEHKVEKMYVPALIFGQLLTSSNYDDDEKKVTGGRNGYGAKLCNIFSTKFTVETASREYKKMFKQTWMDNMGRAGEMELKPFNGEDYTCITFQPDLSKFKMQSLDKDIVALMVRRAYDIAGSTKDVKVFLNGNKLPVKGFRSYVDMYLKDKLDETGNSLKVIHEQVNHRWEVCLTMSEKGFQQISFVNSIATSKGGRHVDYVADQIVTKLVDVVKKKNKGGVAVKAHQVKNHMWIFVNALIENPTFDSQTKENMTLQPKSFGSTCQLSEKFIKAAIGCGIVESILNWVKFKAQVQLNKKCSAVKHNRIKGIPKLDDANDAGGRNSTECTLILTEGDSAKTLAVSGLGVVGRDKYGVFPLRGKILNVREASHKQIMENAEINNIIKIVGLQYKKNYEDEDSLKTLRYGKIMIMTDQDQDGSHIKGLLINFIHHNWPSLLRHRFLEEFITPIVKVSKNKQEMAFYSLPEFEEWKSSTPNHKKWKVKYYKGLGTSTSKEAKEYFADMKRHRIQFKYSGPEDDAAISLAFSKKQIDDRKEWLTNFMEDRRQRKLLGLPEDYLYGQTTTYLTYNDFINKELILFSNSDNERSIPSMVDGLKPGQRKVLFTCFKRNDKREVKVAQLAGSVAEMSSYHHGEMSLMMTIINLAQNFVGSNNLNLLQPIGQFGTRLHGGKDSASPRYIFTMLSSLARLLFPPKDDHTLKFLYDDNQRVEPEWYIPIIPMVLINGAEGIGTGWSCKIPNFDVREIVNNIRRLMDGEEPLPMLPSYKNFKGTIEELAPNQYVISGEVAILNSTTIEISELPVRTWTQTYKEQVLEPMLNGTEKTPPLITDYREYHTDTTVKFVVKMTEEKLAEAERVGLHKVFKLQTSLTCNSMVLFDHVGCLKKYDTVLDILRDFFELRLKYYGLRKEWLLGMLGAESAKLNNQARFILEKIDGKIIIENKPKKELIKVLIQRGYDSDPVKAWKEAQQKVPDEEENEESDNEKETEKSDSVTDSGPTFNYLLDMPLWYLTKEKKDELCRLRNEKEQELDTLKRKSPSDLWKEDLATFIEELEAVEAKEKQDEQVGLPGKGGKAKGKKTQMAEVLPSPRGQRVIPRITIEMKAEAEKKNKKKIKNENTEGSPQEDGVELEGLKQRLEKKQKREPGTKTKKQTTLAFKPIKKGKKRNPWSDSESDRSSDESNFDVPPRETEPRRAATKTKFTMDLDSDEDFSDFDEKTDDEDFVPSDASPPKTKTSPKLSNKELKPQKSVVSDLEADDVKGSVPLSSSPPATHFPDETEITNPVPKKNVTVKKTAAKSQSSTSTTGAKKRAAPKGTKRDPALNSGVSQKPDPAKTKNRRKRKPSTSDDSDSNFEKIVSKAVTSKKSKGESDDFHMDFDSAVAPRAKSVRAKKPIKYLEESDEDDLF

In the case of `CCCCCCCCCCCCCCCCCC(=O)OCCCO[C@H]1O[C@H](CS(=O)(=O)O)[C@@H](O)[C@H](O)[C@H]1O` [SQAP, Alpha-sulfoquinovosylacyl-1,3-propanediol], the entries for the “cytotoxicity of continuous exposure of SQAP (clonogenic survival)” value in data set [1] (30 µM SQAP) and in [1] (60 µM SQAP) were “tolerance” and “minimal cell viability”, respectively. Also, in data set [2], the “changes in OER values with and without SQAP treatment” value was “not observed”. Moreover, the “radiosensitization to gamma-ray exposure” value in [2] (both normoxic and hypoxia conditions) is “induced radiosensitization”. Moreover, the IC50 amounted to 25 µM on Topo I and 9 µM against Topo II alpha. In addition, the “spontaneous sister chromatid exchange formation” value is “no reduction” in [3] (51D1 (rad51d mutant, HR deficient), non toxic SQAP concentrations); “reduced” in data set [3] (CHO wild type, 5 to 20 µM SQAP, significant from 10 µM); “reduced” in data set [3] (EM9 (XRCC1 mutant), 5 to 20 µM SQAP, significant from 10 µM); “reduced” in data set [3] (xrs5 (Ku80 mutant), 5 to 20 µM SQAP, significant from 10 µM). In addition, the “residual PCC levels” value in the data set on CHO cells (1 Gy, after 2 h, with SQAP) was about 4.8. The “number of G2-PCC chromatid breaks” value with CHO cells (immediately after 1 Gy irradiation, SQAP-treated) is “approximately 10”. For the same compound, the HDAC1 enzymatic inhibition result in [4] is “does not inhibit”. For the same compound, the HDAC1 expression result in the data set with HDAC1 expression is given as “reduces”. In addition, the PARG inhibition result in data set [5] is given as “inhibitory effect”. Further, the adverse systemic events result in [6] is recorded as “not detected”. In addition, the “clearance from normal tissues and persistence in tumors” value in [7] is on record as “rapidly cleared from normal tissues but persists in tumors for several hours”.
